Experimental findings from patent publication US11059795B2, “Androgen receptor modulators and methods for their use” (ESSA Pharma, Inc., priority 2018, dated 2021) are described below.

Each structure is given as a SMILES string. Where a name gives a salt, the structure may show the parent alone.

Usually IC50 stands for the concentration needed to halve the response being measured.

Series [1] is described as follows: Microsomal stability assay, human liver microsomes. The settings on record: pH 7.4, 1 μM compound, 0.5 mg/mL protein, 37° C., read-out: HLM +/− NADPH: Clint (μL/min/mg protein). In kind it is in vitro ADME. As to the method:
(§1) Microsomal stability assay is a widely used in vitro model to characterize the metabolic conversion by phase I enzymes, such as cytochrome P450 (CYP) enzymes. Since metabolism is known to be highly variable in different species, microsomal stability assay is commonly run in multiple species. Metabolic stability of testing compound can be evaluated using human, rat, mouse, or other animal liver or intestine microsomes to predict intrinsic clearance.
(§2) The assay was carried out in 96-well microtiter plates at 37° C. Reaction mixtures (25 μL) contained a final concentration of 1 μM test compound, 0.5 mg/mL liver microsomes protein, and 1 mM NADPH and/or 1 mM UDPGA (with alamethicin) in 100 mM potassium phosphate, pH 7.4 buffer with 3 mM MgCl2. The incubation was done with N=1, but duplicate incubation at each time point can be prepared if necessary. At each of the time points (for example, 0, 15, 30, and 60 minutes), 150 μL of quench solution (100% acetonitrile with 0.1% formic acid) with internal standard was transferred to each well. Besides the zero minute controls, mixtures containing the same components except the NADPH can also be prepared as the negative control. Verapamil was included as a positive control to verify assay performance. Plates were sealed, vortexed, and centrifuged at 4° C. for 15 minutes at 4000 rpm. The supernatant is transferred to fresh plates for LC/MS/MS analysis.
(§3) Summarized conditions: [Compound]=[…], [LM]=0.5 mg/mL, [NADPH]=1 mM and/or [UDPGA]=1 mM, Buffer=100 mM Potassium Phosphate, pH 7.4 with 3 mM MgCl2, Time=0, 15, 30, and 60 min, and Temperature=37° C.
(§4) All samples were analyzed on LC/MS/MS using an AB Sciex API 4000 instrument, coupled to a Shimadzu LC-20AD LC Pump system. Analytical samples were separated using a Waters Atlantis T3 dC18 reverse phase HPLC column (20 mm×2.1 mm) at a flow rate of 0.5 mL/min. The mobile phase consisted of 0.1% formic acid in water (solvent A) and 0.1% formic acid in 100% acetonitrile (solvent B).
(§5) The extent of metabolism is calculated as the disappearance of the test compound, compared to the 0-min time incubation. Initial rates are calculated for the compound concentration and used to determine half-life (t½) values and subsequently, the intrinsic clearance (Clint). Clint=(0.693)(1/t½ (min))(g of liver/kg of body weight)(mL incubation/mg of microsomal protein)(45 mg of microsomal protein/g of liver weight)
(Liver microsomes are a subcellular fraction often used to study metabolism.)

The next series addresses T1, androgen receptor (AR) (Homo sapiens, UniProt P10275, T878A).
T1 construct: LNCaP cells were transiently transfected with the PSA (6.1 kb)-luciferase reporter for 24 h; endogenous in cells; host or cells: LNCaP
T1 sequence (P10275 1-920 T878A): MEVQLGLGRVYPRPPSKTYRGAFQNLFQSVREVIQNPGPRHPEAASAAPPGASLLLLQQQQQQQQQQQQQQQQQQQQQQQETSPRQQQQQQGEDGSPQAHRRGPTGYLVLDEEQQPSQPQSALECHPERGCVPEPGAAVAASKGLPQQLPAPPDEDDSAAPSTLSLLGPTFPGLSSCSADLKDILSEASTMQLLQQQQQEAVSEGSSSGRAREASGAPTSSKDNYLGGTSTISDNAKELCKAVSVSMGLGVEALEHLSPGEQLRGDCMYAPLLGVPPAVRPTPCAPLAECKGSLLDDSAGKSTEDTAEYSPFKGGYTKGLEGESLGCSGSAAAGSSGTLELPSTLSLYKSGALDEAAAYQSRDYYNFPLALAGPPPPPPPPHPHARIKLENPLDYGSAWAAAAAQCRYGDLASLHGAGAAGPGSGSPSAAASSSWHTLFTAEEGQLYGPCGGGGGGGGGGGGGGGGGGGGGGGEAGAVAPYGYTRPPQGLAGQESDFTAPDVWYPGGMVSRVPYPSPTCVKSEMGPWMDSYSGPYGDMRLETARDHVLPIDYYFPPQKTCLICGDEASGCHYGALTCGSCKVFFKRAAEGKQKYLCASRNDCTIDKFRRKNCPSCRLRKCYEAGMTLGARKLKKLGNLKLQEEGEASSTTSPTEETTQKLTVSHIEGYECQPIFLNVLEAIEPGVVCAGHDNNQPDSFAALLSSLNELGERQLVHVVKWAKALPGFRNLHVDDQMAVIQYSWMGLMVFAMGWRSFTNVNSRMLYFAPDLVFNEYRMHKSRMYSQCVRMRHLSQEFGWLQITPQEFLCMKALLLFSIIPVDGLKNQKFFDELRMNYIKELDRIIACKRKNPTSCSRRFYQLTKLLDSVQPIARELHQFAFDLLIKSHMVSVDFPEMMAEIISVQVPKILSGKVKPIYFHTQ
Description: Androgen-induced PSA (6.1 kb)-luciferase reporter assay in LNCaP cells. In kind it is cell-based. As to conditions: LNCaP cells transfected with PSA (6.1 kb)-luciferase reporter, R1881 1 nM, 24 h; read-out: PSA-Luc IC50 Range. As to the method:
The PSA (6.1 kb)-luciferase reporter contains functional AREs (androgen response elements) to which AR binds in response to androgen to induce luciferase activity.
Cells were lysed using Passive Lysis Buffer (Promega) and then collected into V-bottom 96-well tissue culture plates. Lysates were centrifuged at 4° C. for 5 minutes at 3000 rpm. To measure luminescence of LNCaP cell lysates the Firefly Luciferase Assay System (Promega) was employed, according to manufacturer's protocol. Relative luminescence units (RLU) in cell lysates were detected for 10 seconds using Promega GloMax-Multi Detection Luminometer (Promega). Values were normalized to protein content. GraphPad Prism graphing software was used to calculate IC50 values.
Comparisons between treatment and control groups were compared using Two-Way ANOVA with post-hoc Dunnett's and Tukey's tests. Differences were considered statistically significant at P values less than 0.05.

Series [2] can be described thus: Microsomal stability assay, mouse liver microsomes. It is filed as in vitro ADME. As to conditions: mouse, liver microsomes, pH 7.4, mouse liver microsomes, 1 μM compound, 0.5 mg/mL protein, 37° C.; read-out: MLM +30/− NADPH: Clint (μL/min/mg protein). As to the method:
as §1, §2, §3, §4, §5

In the case of `CC(C)(c1ccc(OCc2ocnc2S(C)(=O)=O)cc1)c1cc(Cl)c(OCCCCl)c(Cl)c1` [Compound A3, 5-[[4-[1-[3,5-dichloro-4-(3-chloropropoxy)phenyl]-1-methyl-ethyl]phenoxy]methyl]-4-methylsulfonyl-oxazole], the microsomal CLint at 1 μM in series [1] and in series [2] was less than 12 µL/min/mg throughout. Further, the IC50 on androgen receptor (AR) lay in the range of 500 to 2000 nM.

As to `CC(C)(c1ccc(NCc2ocnc2S(C)(=O)=O)cc1)c1cc(Cl)c(OCCCl)c(Cl)c1` [Compound A32, 4-(2-(3,5-dichloro-4-(2-chloroethoxy)phenyl)propan-2-yl)-N-((4-(methylsulfonyl)oxazol-5-yl)methyl)aniline Hydrochloride], the values for the microsomal CLint at 1 μM in series [1] and in series [2] were 12 to 48 µL/min/mg and not below 48 µL/min/mg, respectively. The 50% inhibitory concentration (IC50) at androgen receptor (AR) was more than 2000 nM.

With `CC(C)(c1ccc(C(=O)Nc2ccnc(NS(C)(=O)=O)n2)cc1)c1cc(Cl)c(OCCCl)c(Cl)c1` [Compound A189], the microsomal CLint at 1 μM in series [1] and in series [2] was less than 12 µL/min/mg each time. The IC50 on androgen receptor (AR) fell in the range of 500 to 2000 nM.

`CC(C)(c1ccc(CN2C(=O)N(S(C)(=O)=O)C(C)(C)C2=O)cc1)c1cc(Cl)c(OCCCl)c(Cl)c1` [Compound B3, 3-(4-(2-(3,5-Dichloro-4-(2-chloroethoxy)phenyl)propan-2-yl)benzyl)-5,5-dimethyl-1-(methylsulfonyl)imidazolidine-2,4-dione]: the microsomal CLint at 1 μM in series [1] and in series [2] was less than 12 µL/min/mg each time. The IC50 on androgen receptor (AR) fell in the range of 500 to 2000 nM.

With `CC(C)(c1ccc(OCc2ocnc2C#N)cc1)c1cc(Cl)c(OCCCl)c(Cl)c1` [Compound A65], the microsomal CLint at 1 μM in series [1] and in series [2] was 12 to 48 µL/min/mg in each case. In addition, the IC50 at androgen receptor (AR) was in the range of 500 to 2000 nM.

For `CC(C)(c1ccc(OCc2ocnc2C(N)=O)cc1)c1cc(Cl)c(OCCCl)c(Cl)c1` [Compound A45], the microsomal CLint at 1 μM in series [1] and in series [2] was less than 12 µL/min/mg throughout. In addition, the IC50 at androgen receptor (AR) was 500 to 2000 nM.

With `CC(C)(c1ccc(NC(=O)c2ocnc2S(C)(=O)=O)cc1)c1cc(Cl)c(OCCCl)c(Cl)c1` [Compound A73], the microsomal CLint at 1 μM in series [1] and in series [2] was less than 12 µL/min/mg each time. For the same compound, on androgen receptor (AR), the IC50 lay within 500 to 2000 nM.

Take `Cc1nc(S(C)(=O)=O)c(COc2ccc(C(C)(C)c3cc(Cl)c(OCCCl)c(Cl)c3)cc2)o1` [Compound A34]: the microsomal CLint at 1 μM was less than 12 µL/min/mg in series [1] and 12 to 48 µL/min/mg in series [2]. In addition, the IC50 on androgen receptor (AR) lay within 500 to 2000 nM.

As to `CC(C)(c1ccc(OCc2nc(C#N)co2)cc1)c1cc(Cl)c(OCCCl)c(C#N)c1` [Compound A174], the values for the microsomal CLint at 1 μM in series [1] and in series [2] were less than 12 µL/min/mg and 12 to 48 µL/min/mg, respectively. Moreover, on androgen receptor (AR), the IC50 was 500 to 2000 nM.

As to `CN1C(=O)N(Cc2ccc(C(C)(C)c3cc(Cl)c(OCCCCl)c(Cl)c3)cc2)C(=O)C1(C)C` [Compound B1], the microsomal CLint at 1 μM in series [1] was 12 to 48 µL/min/mg; in series [2] it was not below 48 µL/min/mg. The IC50 at androgen receptor (AR) lay in the range of 500 to 2000 nM.

On to `CC(C)(c1cnc(NCc2ocnc2S(C)(=O)=O)nc1)c1cc(Cl)c(OCCCl)c(Cl)c1` [Compound A27], for which the microsomal CLint at 1 μM in series [1] is less than 12 µL/min/mg; in series [2], not below 48 µL/min/mg. The IC50 on androgen receptor (AR) was more than 2000 nM.

On to `CC(C)(c1ccc(N2C(=O)N(S(C)(=O)=O)C(C)(C)C2=O)cc1)c1cc(Cl)c(OCCCl)c(Cl)c1` [Compound B7], for which the microsomal CLint at 1 μM in series [1] and in series [2] was less than 12 µL/min/mg in each case. Moreover, the half-inhibitory concentration (IC50) at androgen receptor (AR) was more than 2000 nM.

For `COc1c(Cl)cc(C(C)(C)c2ccc(OCc3coc(NS(C)(=O)=O)n3)cc2)cc1C#N` [Compound A161], the microsomal CLint at 1 μM in series [1] and in series [2] was less than 12 µL/min/mg each time.

On to `Cc1cc(C(C)(C)c2ccc(CN3C(=O)N(S(C)(=O)=O)C(C)(C)C3=O)c(C(N)=O)c2)cc(Cl)c1OCCCl` [Compound B9], for which the microsomal CLint at 1 μM in series [1] and in series [2] was 12 to 48 µL/min/mg each time. Besides, the IC50 on androgen receptor (AR) was less than 500 nM.

`CC(C)(c1ccc(OCc2cnc(S(C)(=O)=O)o2)cc1)c1cc(Cl)c(OCCCl)c(Cl)c1` [Compound A57]: the microsomal CLint at 1 μM is 12 to 48 µL/min/mg in series [1] and not below 48 µL/min/mg in series [2]. Moreover, the IC50 at androgen receptor (AR) is less than 500 nM.

As to `Cn1c(COc2ccc(C(C)(C)c3cc(Cl)c(OCCCl)c(Cl)c3)cc2)cnc1S(C)(=O)=O` [Compound A78], the microsomal CLint at 1 μM in series [1] and in series [2] was less than 12 µL/min/mg in each case. Besides, the IC50 on androgen receptor (AR) lay in the range of 500 to 2000 nM.

On to `CC(C)(c1cc(Cl)c(OCCCl)c(Cl)c1)c1ccc(N2C(=O)N(S(C)(=O)=O)C(C)(C)C2=O)c(C#N)c1` [Compound B10], for which the microsomal CLint at 1 μM in series [1] is less than 12 µL/min/mg; in series [2], 12 to 48 µL/min/mg. The IC50 at androgen receptor (AR) is more than 2000 nM.

As to `CC(C)(c1ccc(OCCCl)c(C#N)c1)c1ccc(OCc2ocnc2S(C)(=O)=O)c(C#N)c1` [Compound A63, 2-(2-chloroethoxy)-5-(2-(3-cyano-4-((4-(methylsulfonyl)oxazol-5-yl)methoxy)phenyl)propan-2-yl)benzonitrile], the microsomal CLint at 1 μM in series [1] was 12 to 48 µL/min/mg. Besides, the IC50 at androgen receptor (AR) is 500 to 2000 nM.

As to `CSc1nnc(COc2ccc(C(C)(C)c3cc(Cl)c(OCCCCl)c(Cl)c3)cc2)o1` [Compound A17], the microsomal CLint at 1 μM in series [1] was less than 12 µL/min/mg. For the same compound, at androgen receptor (AR), the IC50 is 500 to 2000 nM.

As to `CCOc1c(Cl)cc(C(C)(C)c2ccc(OCc3ocnc3S(C)(=O)=O)cc2)cc1Cl` [Compound A52], in series [1], the microsomal CLint at 1 μM is less than 12 µL/min/mg. The IC50 on androgen receptor (AR) was more than 2000 nM.

`Cc1nc(-c2ccc(C(C)(C)c3cc(Cl)c(OCCCCl)c(Cl)c3)cc2)co1` [Compound A64]: the microsomal CLint at 1 μM in series [1] is not below 48 µL/min/mg. At androgen receptor (AR), the IC50 is more than 2000 nM.

In the case of `CC(C)(c1ccc(OCc2nnc(S(C)(=O)=O)o2)cc1)c1cc(Cl)c(OCCCCl)c(Cl)c1` [Compound A7, 2-((4-(2-(3,5-dichloro-4-(3-chloropropoxy)phenyl)propan-2-yl)phenoxy)methyl)-5-(methylsulfonyl)-1,3,4-oxadiazole], the microsomal CLint at 1 μM in series [1] was not below 48 µL/min/mg. In addition, the IC50 on androgen receptor (AR) is more than 2000 nM.
